# Literature values, collected in patent publication US20040157848A1, “Methods and compositions for the treatment of herpes virus infections using cyclooxygenase-2 selective inhibitors or cyclooxygenase-2 inhibitors in combination with antiviral agents” (Pharmacia Corporation, priority 2002, published 2004).
# How the values were obtained:
# herpes virus = settings: supplementation with exogenous GSH, in vitro
# [1] = system: cytomegalovirus induced reactive oxygen species; settings: cytomegalovirus infected human smooth muscle
Compound,inhibition of the replication of herpes virus (herpes virus),cytomegalovirus induced reactive oxygen species [1]
"N[C@@H](CCC(=O)N[C@@H](CS)C(=O)NCC(=O)O)C(=O)O [GSH, glutathione]",over 99%,–
CC(=O)Oc1ccccc1C(=O)O [aspirin],–,reduces
